In US20060117411A1, “Enhancing plant pathogen resistance via increasing BiP levels” (priority 1998, published 2006):

Tests used:
PR1 mRNA [1] = test: SA spraying of tobacco plants, Northern blot of PR1 mRNA; assay type: in vivo, Nicotiana tabacum
Method: It has been shown that SA is involved in the induction of PR genes (reviewed by Malamy and Klessig, 1992) and that this signal molecule also induces the expression of ER chaperones (Denecke et al, 1995). We wanted to investigate whether ER chaperone induction is a consequence of the high synthesis rates of PR genes and used BiP as a model system. Tobacco plants were sprayed with SA (5 mM) and the exact timing of the SA-mediated induction of PR-gene PRI was compared to that of BiP. PR1 was chosen as a representative marker for SA-mediated induction of PR genes as its response to SA is faster and more pronounced than that of acidic chitinase, basic chitinase and basic β-1.3 glucanase (Vidal et al, 1997). […] In contrast SA-induced transcription of PR1 starts only after 6-8 hours and continues to accumulate upto 16 hours after treatment. At this time-point, BiP mRNA levels start to decrease again. We have shown previously that PR1 continuous to accumulate until 48 hours after SA treatment using the same experimental system (Vidal et al, 1997). […] BiP protein levels were also shown to increase (FIG. 7B), with a significant increase noticeable after 4-6 hours of induction.
To investigate further similarities and differences in the SA-mediated induction of BiP and PR genes, we tested if the presence of light is required for the induction. The rationale for this experiment was derived from the observation that SA inhibits catalase, resulting in an increase of active oxygen species in the plant, which would then induce PR genes such as PR1 (Chen et al, 1993). […]
We have shown that the SA-induced expression of PR1 is inhibited in a concentration dependent fashion by the presence of Erwinia carotovora culture filtrate containing cell wall-degrading enzymes (Vidal et al, 1997). […] Total RNA was extracted and the expression of chaperones was determined in relation to PR1. […]

BiP protein levels = test: SA spraying of tobacco plants, protein gel blot of BiP; assay type: in vivo, Nicotiana tabacum; conditions: sprayed with SA 5 mM
Method: It has been shown that SA is involved in the induction of PR genes (reviewed by Malamy and Klessig, 1992) and that this signal molecule also induces the expression of ER chaperones (Denecke et al, 1995). We wanted to investigate whether ER chaperone induction is a consequence of the high synthesis rates of PR genes and used BiP as a model system. Tobacco plants were sprayed with SA (5 mM) and the exact timing of the SA-mediated induction of PR-gene PRI was compared to that of BiP. PR1 was chosen as a representative marker for SA-mediated induction of PR genes as its response to SA is faster and more pronounced than that of acidic chitinase, basic chitinase and basic β-1.3 glucanase (Vidal et al, 1997). […] In contrast SA-induced transcription of PR1 starts only after 6-8 hours and continues to accumulate upto 16 hours after treatment. At this time-point, BiP mRNA levels start to decrease again. […]
Fully expanded leaves were collected and quickly frozen in liquid nitrogen. […] Protein concentrations were determined using Bio-Rad protein assay reagent
Proteins in SDS-polyacrylamide gels were transferred onto a nitrocellulose membrane and then blocked with PBS, 0.5% Tween 20, and 5% milk powder for 1 hr. […] Detection of antigen-antibody complexes was performed with enhanced chemiluminescence (ECL, Amersham Corp), and the images were recorded on film.

PR1 mRNA [2] = conditions: same experimental system, Vidal et al, 1997; cited from earlier work

## O=C(O)c1ccccc1O [SA, Salicylic Acid]
PR1 mRNA [1]; SA 5 mM, 6 and 16 hours, dark vs light
  PR1 induction during SA-treatment in the absence of light: almost completely abolished
PR1 mRNA [1]; sprayed with SA 5 mM
  time after which SA-induced transcription of PR1 starts: 6 to 8 h
  time up to which PR1 continues to accumulate: ≤ 16 h
BiP protein levels
  time of induction after which a significant increase of BiP protein levels is noticeable: 4 to 6 h
PR1 mRNA [2]
  time until which PR1 continues to accumulate (shown previously): ≤ 48 h
